# Experimental data as given in publication PMC7990704 (Nature chemical biology, 2021).
# Where two headings read alike, the source gives them in different places.
# What was measured:
# Cdk2 [1] = target: T1, Cdk2 (Homo sapiens, UniProt P24941, A93C/C118A/C177S/R157C); format: binding
# Cdk2 [2] = target: Cdk2 (Homo sapiens, UniProt P24941, A93C/C118A/C177S/S46C)
# Cdk2 [3] = target: T1, Cdk2
# Cdk2 [4] = system: Cdk2; set-up: species or system Human
# pCdk4:cyclinD = pCdk4:cyclinD (Homo sapiens, UniProt P11802); test: γ-33P radioactivity kinase assay with RB as substrate and 10 μM ATP; format: biochemical
# cells = details: cited from earlier work
# pCdk4:cyclinD, sequence (P11802 whole entry): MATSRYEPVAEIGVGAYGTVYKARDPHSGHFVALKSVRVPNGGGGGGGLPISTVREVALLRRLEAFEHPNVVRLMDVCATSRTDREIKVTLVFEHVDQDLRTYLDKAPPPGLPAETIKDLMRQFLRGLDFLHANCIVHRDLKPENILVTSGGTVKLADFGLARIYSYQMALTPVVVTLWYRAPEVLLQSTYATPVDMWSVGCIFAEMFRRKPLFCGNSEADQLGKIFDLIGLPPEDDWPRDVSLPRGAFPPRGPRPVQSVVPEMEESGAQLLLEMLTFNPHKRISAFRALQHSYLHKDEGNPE
# pCdk4:cyclinD, sequence (P24385 whole entry partner): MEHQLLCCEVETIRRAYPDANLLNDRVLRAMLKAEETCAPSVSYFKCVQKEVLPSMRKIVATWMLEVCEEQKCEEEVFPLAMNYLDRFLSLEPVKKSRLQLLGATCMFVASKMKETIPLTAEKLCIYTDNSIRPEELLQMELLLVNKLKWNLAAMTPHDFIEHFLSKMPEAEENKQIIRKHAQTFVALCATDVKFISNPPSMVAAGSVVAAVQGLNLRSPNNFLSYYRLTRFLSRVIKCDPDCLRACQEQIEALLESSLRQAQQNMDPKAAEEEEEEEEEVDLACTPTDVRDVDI
structure (smiles),measurement,setting,value
CN1CC[C@H](c2c(O)cc(O)c3c(=O)cc(-c4ccccc4Cl)oc23)[C@H](O)C1 [flavopiridol],binding cooperativity between inhibitor and cyclin,Cdk2 [1],50 fold
same,conformational effect on the αC-helix (DEER),Cdk2 [2],population shifts toward the αC-in state
same,conformational effect on the A-loop (DEER),Cdk2 [3],increased the Aloop-out1 subpopulation
same,conformational effect on the A-loop (DEER),Cdk2 [4],promoted the Aloop-out2 subpopulation
CN(C)C(=O)c1cc2cnc(Nc3ccc(N4CCNCC4)cn3)nc2n1C1CCCC1 [ribociclib],binding cooperativity with cyclin (in words),Cdk2 [1],lacked substantial binding cooperativity with cyclin
same,effect on the Aloop-in/out equilibrium (FRET),Cdk2 [1],did not promote the Aloop-out state
Nc1ncnc2c1ncn2[C@@H]1O[C@H](COP(=O)(O)OP(=O)(O)O)[C@@H](O)[C@H]1O [ADP],conformational effect on the A-loop (DEER),"Cdk2 [3]; monomeric Cdk2, inhibitor 250 µM",promoted the Aloop-out state
CC(=O)c1c(C)c2cnc(Nc3ccc(N4CCNCC4)cn3)nc2n(C2CCCC2)c1=O [palbociclib],effect on the Aloop-in/out equilibrium (FRET),Cdk2 [1]; Fig. 4d,did not promote the Aloop-out state
same,binding cooperativity with cyclin (in words),"Cdk2 [1]; Fig. 4d, cyclinA",lacked substantial binding cooperativity with cyclin
CCN1CCN(Cc2ccc(Nc3ncc(F)c(-c4cc(F)c5nc(C)n(C(C)C)c5c4)n3)nc2)CC1 [abemaciclib],potency for Cdk4 compared with palbociclib or ribociclib,pCdk4:cyclinD,greater potency
same,Cdk1 substrate phosphorylation in cells,cells,blocks Cdk1 substrate phosphorylation
same,cell cycle effect in cells,cells,triggers a G2 arrest
